We go through two compounds from patent publication US7955618B2, “Composition for treatment of inflammatory disorders” (Enceladus Pharmaceuticals B.V., priority 2001, dated 2011).

The subject of test [1] is AT-EAE (T cells and macrophages in spinal cord). The conditions noted are these: 50 mg/kg i.v. at 18 h and 6 h before perfusion. On the procedure: Adoptive Transfer Experimental Autoimmune Encephalomyelitis (AT-EAE) was induced in female Lewis rats by intravenous injection of 10^7 MBP-specific T cells.
10 mg/kg prednisolone phosphate containing liposomes, as prepared according to Example I, were applied intravenously at 42 hours and 18 hours prior to sacrifice. Another group received 50 mg/kg methylprednisolone intravenously at 18 hours and 6 hours before perfusion. Control rats received empty liposomes and/or saline at equivalent time points.
T cells or macrophages in spinal cord were detected immunohistochemically in paraffin embedded tissue and apoptosis was assessed by the TUNEL assay and by morphological criteria. Student t test for grouped data was used for statistical analysis.

Test [2] concerns rat adjuvant arthritis model (paw inflammation). In words: Rat adjuvant arthritis model, visual paw inflammation score. Format: in vivo, Lewis rats. The note with it: for average inflammation score: day 15 until day 21, 6.5±0.56 on day 14, daily saline max 10.6±1.3 on day 20; for effect on course of the disease (paw inflammation): single injection, doses equal to liposomal drug, p>0.05 Kruskall-Wallis. As to the method: Lewis rats were immunized subcutaneously at the tail base with heat-inactivated Mycobacterium tuberculosis in incomplete Freund's adjuvant.
Assessment of the disease was performed by visually scoring paw inflammation severity, maximum score 4 per paw, and measuring disease-induced body weight loss. […] Rats were treated when the average score >6 (at day 14 or 15 after disease induction).

Take `C[C@H]1C[C@@H]2[C@H]([C@@H](O)C[C@@]3(C)[C@H]2CC[C@]3(O)C(=O)CO)[C@@]2(C)C=CC(=O)C=C12` [Methylprednisolone, methylprednisolone]: the clinical score in test [1] (controls 3.2±0.3) worked out at 3.2±0.3. In test [1] (controls 78±37), the “macrophage infiltration in spinal cord” value is listed as 66±25 macrophages/mm^2. Also, the “T cell infiltration in spinal cord” value in test [1] (controls 115±51) turned out to be 96±19 T cells/mm^2. The “rate of T cell apoptosis in spinal cord tissue” value in test [1] (mean±SD, control 16.1±4.3%) amounted to 30.8±8.0%.

Turning to “prednisolone disodium phosphate [Unencapsulated prednisolone phosphate]”, the average inflammation score result in test [2] (10 mg/kg daily for 7 days) and in test [2] (20 mg/kg daily for 7 days) was “around 5.0” each time. Moreover, the figures for the “effect on course of the disease (paw inflammation)” value in test [2] and in test [2] (listed as unencapsulated prednisolone phosphate) were “did not significantly alter the course of the disease” and “No effect”, respectively.
